# Measurements: patent US20140315972A1, “RS)-2-(2-oxo-4-phenylpyrrolidin-1-yl)acetamide compound having modulatory activity with a commensurate effect, pharmaceutical substance (variants) and its application, composition (variants) thereof” (priority 2011, published 2014)
# Where “and” joins values, the source holds several entries; their conditions need not be identical. Equal entries are not always repeated. Marks after values point to notes of the source that are not given here.
# Experiments:
# mice [1] = test: Acute toxicity, single intraperitoneal injection in male mice; format: in vivo; conditions: male mice 18-24 g; single i.p.
# Method: Tables 2, 2.1 and 2.2 present the results of acute toxicity studies of the Compounds with active substance content in at least white outbred male mice (body weight 18-24 g) and white outbred rats 30-35 days of age, of both sexes with a single dose. Calculation of toxic doses was made using the Wilcoxon and Litchfield method. Observations were made over 24 hours and 14 days after a single dose.
# LD50 in rat pups after intragastric administration was not found. Intragastric administration to rat pups of doses of more than 1000 mg/kg is technically impossible due to the small volume of the stomach (Table 2.2).
# mice [2] = test: Tremor caused by arecoline; format: in vivo; conditions: for Duration of tremor: mice, arecoline 25 mg/kg
# Source text: Studies have been conducted on white outbred male mice (18-24 g), in comparison with the olanzapine (Zyprexa) with intraperitoneal injection.
# mice [3] = test: Haloperidol-induced catalepsy; format: in vivo; conditions: for decrease of catalepsy severity vs control: 300 mg/kg; for Catalepsy: mice
# Method: Duration of catalepsy was measured in seconds, after 60, 120 and 180 minutes after the drug administration. Phenotropil was administered intraperitoneally at doses of 50, 100 and 300 mg/kg 15 minutes after haloperidol 0.5 mg/kg. Haloperidol induced catalepsy growing over time. […] At a dose of 50 mg/kg, duration of the catalepsy after 180 min was only 4.8 seconds as compared to controls (63.4 seconds). […] Phenotropil markedly counteracts haloperidol-induced catalepsy, indicating its antiparkinsonian activity.
# rats [4] = test: Retrograde amnesia of CRPA induced by electroshock and scopolamine, adult rats; format: in vivo
# Source text: Phenotropil has a pronounced mnemotropic and nootropic activity. The results of the study of the antiamnestic activity (classical technique in the equipment manufactured by Lafayette Instrument Co, USA) in the retrograde amnesia of the passive avoidance conditional reflex (CRPA) induced by maximal electroshock (MES) and scopolamine in male rats (180-250 g) are shown in Table 7. […] Taking into account the studies using the open field and cross maze tests, the nootropic action component of the modulatory drug not only may be more pronounced, but is broader in manifestation depending on the type of disorder or in unfamiliar situational conditions. The pronounced nootropic activity of Phenotropil (100, 200, 300 mg/kg) also manifests in rat pups of both sexes 30-35 days of age (Table 7.1) after scopolamine-induced CRPA amnesia.
# rats [5] = test: 14-day immobilization in antiorthostatic position (Ds), thymus, spleen, adrenal mass ratios Kt; format: in vivo; conditions: Ds-conditions; for S/A: spleen/adrenals ratio (mg/100 g baseline body weight); for S/T: spleen/thymus ratio (mg/100 g baseline body weight); for T/A: thymus/adrenals ratio (mg/100 g baseline body weight)
# IL-1 = test: Cytokine profile in supernatants of peripheral mononuclear cultures (ELISA), asthenoneurotic patients; format: in vivo, human; conditions: for IL-1: asthenoneurotic disorders, humans
# Method: (§1) The study of immunocompetent activity of Phenotropil included patients with neurasthenia and organic asthenic disorder (20-47 years) of both sexes (men 37%, women 63%). Control group included practically healthy people (20 people). The study groups were similar in age and sex ratio. Phenotropil was administered at a dose of 100 mg/day, one time in the morning for 30 days. Study of the immune and mental status (level of IL-1, IL-2, IL-3, IL-6, α-TNF, α-INF in supernatants of cultures of peripheral mononuclears from whole blood) was carried out before treatment and at days 7, 14, 21 after the therapy course (30 days) and after 3 months of therapy. Blood sampling for analysis was carried out at the same time of day in the control group and in the group of patients. Peripheral mononuclear cells were isolated from the whole blood; interleukin level was determined by ELISA kits (“Immunotech”, France).
# IL-2 = test: as above; format: in vivo, human; conditions: for IL-2 (×10): asthenoneurotic disorders, humans
# Method: as §1
# IL-3 = test: as above; format: in vivo, human; conditions: for IL-3 (×10): asthenoneurotic disorders, humans
# Method: as §1
# IL-6 = test: as above; format: in vivo, human; conditions: for IL-6: asthenoneurotic disorders, humans
# Method: as §1
# α-INF = test: as above; format: in vivo, human; conditions: for α-INF: asthenoneurotic disorders, humans
# Method: as §1
# α-TNF = test: as above; format: in vivo, human; conditions: for α-TNF (×100): asthenoneurotic disorders, humans
# Method: as §1
# [6] = After treatment (one month course)
# [7] = patients, 100 mg/day 30 days, after course
# [8] = patients, three months after the therapy
compound,measurement,setting,value
"NC(=O)CN1CC(c2ccccc2)CC1=O (racemic) [Compound 1, (RS)-2-(2-oxo-4-phenylpyrrolidine-1-yl)acetamide]",LD50,mice [1],1042 (982.9-1102.0) mg/kg
same,reduction of duration of tremor,mice [2]; 200 mg/kg,63%
same,reduction of duration of tremor,mice [2]; 300 mg/kg,50%
same,Duration of tremor,mice [2]; 200 mg/kg,153 ± 27 s
same,Duration of tremor,mice [2]; 300 mg/kg,208 ± 36 s
same,decrease of catalepsy severity vs control,mice [3]; 180 minutes,decreased threefold
same,decrease of catalepsy severity vs control,mice [3]; after the 60 min point,2.6 times
same,Catalepsy,"mice [3]; haloperidol 0.5 mg/kg + 50 mg/kg i.p., 120 min",8.5 ± 3.5 s
same,Catalepsy,"mice [3]; haloperidol 0.5 mg/kg + 50 mg/kg i.p., 180 min, listed as Phenotropil",4.8 s and 4.8 ± 2.1 s
same,Catalepsy,"mice [3]; haloperidol 0.5 mg/kg + 100 mg/kg i.p., 120 min",2.0 ± 1.0 s
same,Catalepsy,"mice [3]; haloperidol 0.5 mg/kg + 100 mg/kg i.p., 180 min",0.0 ± 0.0 s
same,Catalepsy,"mice [3]; haloperidol 0.5 mg/kg + 300 mg/kg i.p., 60 min",6.6 ± 1.9 s
same,Catalepsy,"mice [3]; haloperidol 0.5 mg/kg + 300 mg/kg i.p., 120 min",10.6 ± 4.5 s
same,Catalepsy,"mice [3]; haloperidol 0.5 mg/kg + 300 mg/kg i.p., 180 min",21.4 ± 8.4 s
same,"Latent period of the first entry into the chamber at testing the preservation of CRPA, after 24 hours","rats [4]; ECS amnesia, 25 mg/kg",65.6* seconds
same,"Latent period of the first entry into the chamber at testing the preservation of CRPA, after 24 hours","rats [4]; ECS amnesia, 50 mg/kg",74.4* seconds
same,"Latent period of the first entry into the chamber at testing the preservation of CRPA, after 24 hours","rats [4]; ECS amnesia, 100 mg/kg",112.5* seconds
same,"Latent period of the first entry into the chamber at testing the preservation of CRPA, after 24 hours","rats [4]; scopolamine 1 mg/kg amnesia, 25 mg/kg",78.8* seconds
same,"Latent period of the first entry into the chamber at testing the preservation of CRPA, after 24 hours","rats [4]; scopolamine 1 mg/kg amnesia, 50 mg/kg",96.0* seconds
same,"Latent period of the first entry into the chamber at testing the preservation of CRPA, after 24 hours","rats [4]; scopolamine 1 mg/kg amnesia, 100 mg/kg",125.3* seconds
same,S/A,rats [5]; 25 mg/kg,7.6 ± 1.2
same,S/T,rats [5]; 25 mg/kg,2.2 ± 0.1
same,T/A,rats [5]; 25 mg/kg,5.5 ± 1.1
same,S/A,rats [5]; 50 mg/kg,8.2 ± 1.2
same,S/T,rats [5]; 50 mg/kg,1.6 ± 0.1
same,T/A,rats [5]; 50 mg/kg,6.6 ± 1.1
same,S/A,rats [5]; 100 mg/kg,8.8 ± 1.2
same,S/T,rats [5]; 100 mg/kg,1.2 ± 0.2
same,T/A,rats [5]; 100 mg/kg,5.5 ± 1.1
same,IL-1,IL-1; [6],1.65 ± 0.03
same,IL-1,IL-1; At 3 months after treatment,1.63 ± 0.04
same,IL-1 level vs baseline values,IL-1; [7],−3.5%
same,IL-1 level vs baseline,IL-1; [8],−4.6%
same,IL-2 (×10),IL-2; [6],2.09 ± 0.04
same,IL-2 (×10),IL-2; At 3 months after treatment,2.21 ± 0.04
same,IL-2 level vs baseline values,IL-2; [7],+8.9%
same,IL-2 level vs baseline,IL-2; [8],+15.1%
same,IL-3 (×10),IL-3; [6],2.13 ± 0.05
same,IL-3 (×10),IL-3; At 3 months after treatment,2.23 ± 0.06
same,IL-3 level vs baseline values,IL-3; [7],+12.7%
same,IL-3 level vs baseline,IL-3; [8],+18.0%
same,IL-6,IL-6; [6],3.55 ± 0.15
same,IL-6,IL-6; At 3 months after treatment,3.80 ± 0.03
same,IL-6 level vs baseline values,IL-6; [7],+11.3%
same,IL-6 level vs baseline,IL-6; [8],+19.0%
same,α-INF,α-INF; [6],4.18 ± 0.06
same,α-INF,α-INF; At 3 months after treatment,4.11 ± 0.05
same,α-INF level vs baseline values,α-INF; [7],−10.3%
same,α-INF level vs baseline,α-INF; [8],−11.8%
same,α-TNF (×100),α-TNF; [6],8.56 ± 0.60
same,α-TNF (×100),α-TNF; At 3 months after treatment,7.92 ± 0.54
same,α-TNF level vs baseline values,α-TNF; [7],−11.6%
same,α-TNF level vs baseline,α-TNF; [8],−18.2%
